Data published in ChEMBL document CHEMBL1136076, “A new class of histamine H(3)-receptor antagonists: synthesis and structure-activity relationships of 7,8,9,10-tetrahydro-6H-cyclohepta[b]quinolines” (Bioorg Med Chem Lett, 2003).

Tests used:
Histamine H3 receptor [1] = target: Histamine H3 receptor (Rattus norvegicus, UniProt Q9QYN8); test: Binding affinity towards rat cortical Histamine H3 receptor
Histamine H3 receptor [2] = target: T1, Histamine H3 receptor (Homo sapiens, UniProt Q9Y5N1); test: Binding affinity towards cloned human H3L receptor
Histamine H2 receptor = Histamine H2 receptor (Homo sapiens, UniProt P25021); test: Compound was tested for its binding affinity towards human H2 receptor
Histamine H3 receptor [3] = target: T1, Histamine H3 receptor; test: Compound was tested for its binding affinity towards human H3L receptor
Histamine H1 receptor = Histamine H1 receptor (Homo sapiens, UniProt P35367); test: Compound was tested for its binding affinity towards human H1 receptor
Histamine H1 receptor, sequence (P35367 whole entry): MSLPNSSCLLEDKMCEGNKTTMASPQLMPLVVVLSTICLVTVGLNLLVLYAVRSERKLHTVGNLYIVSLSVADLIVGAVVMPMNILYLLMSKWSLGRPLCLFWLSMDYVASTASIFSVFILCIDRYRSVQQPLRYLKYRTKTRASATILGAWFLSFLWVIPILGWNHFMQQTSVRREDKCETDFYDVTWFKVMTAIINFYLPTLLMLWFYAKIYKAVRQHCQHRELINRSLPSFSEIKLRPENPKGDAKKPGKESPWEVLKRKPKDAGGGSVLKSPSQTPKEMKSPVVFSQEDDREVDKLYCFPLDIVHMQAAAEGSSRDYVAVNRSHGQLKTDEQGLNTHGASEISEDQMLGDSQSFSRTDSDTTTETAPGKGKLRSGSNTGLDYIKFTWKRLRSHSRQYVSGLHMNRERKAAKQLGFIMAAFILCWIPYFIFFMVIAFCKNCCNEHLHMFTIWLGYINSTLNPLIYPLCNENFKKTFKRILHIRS

T1 sequence (Q9Y5N1 whole entry): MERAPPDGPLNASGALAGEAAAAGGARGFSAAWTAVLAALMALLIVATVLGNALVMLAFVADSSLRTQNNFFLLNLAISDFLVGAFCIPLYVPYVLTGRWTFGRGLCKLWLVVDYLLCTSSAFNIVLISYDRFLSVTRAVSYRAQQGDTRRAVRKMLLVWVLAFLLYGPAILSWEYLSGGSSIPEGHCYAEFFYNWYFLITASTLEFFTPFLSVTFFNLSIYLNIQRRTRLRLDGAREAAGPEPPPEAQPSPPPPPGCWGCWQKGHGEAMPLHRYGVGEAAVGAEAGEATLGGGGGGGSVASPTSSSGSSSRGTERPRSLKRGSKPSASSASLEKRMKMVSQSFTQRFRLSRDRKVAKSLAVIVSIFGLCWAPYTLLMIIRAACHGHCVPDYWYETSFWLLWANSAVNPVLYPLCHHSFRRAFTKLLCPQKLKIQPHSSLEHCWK
Histamine H2 receptor, sequence (P25021 whole entry): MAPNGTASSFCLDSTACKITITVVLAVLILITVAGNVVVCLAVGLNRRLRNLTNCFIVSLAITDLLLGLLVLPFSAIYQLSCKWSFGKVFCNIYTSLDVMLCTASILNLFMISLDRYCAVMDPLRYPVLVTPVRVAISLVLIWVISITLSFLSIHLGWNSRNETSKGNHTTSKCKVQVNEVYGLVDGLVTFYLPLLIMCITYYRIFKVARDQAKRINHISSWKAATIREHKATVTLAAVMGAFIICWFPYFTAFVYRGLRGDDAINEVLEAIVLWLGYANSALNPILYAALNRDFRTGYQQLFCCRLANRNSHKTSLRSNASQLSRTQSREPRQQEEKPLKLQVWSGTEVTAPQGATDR
Histamine H3 receptor (Rattus norvegicus, UniProt Q9QYN8), sequence (Q9QYN8 whole entry): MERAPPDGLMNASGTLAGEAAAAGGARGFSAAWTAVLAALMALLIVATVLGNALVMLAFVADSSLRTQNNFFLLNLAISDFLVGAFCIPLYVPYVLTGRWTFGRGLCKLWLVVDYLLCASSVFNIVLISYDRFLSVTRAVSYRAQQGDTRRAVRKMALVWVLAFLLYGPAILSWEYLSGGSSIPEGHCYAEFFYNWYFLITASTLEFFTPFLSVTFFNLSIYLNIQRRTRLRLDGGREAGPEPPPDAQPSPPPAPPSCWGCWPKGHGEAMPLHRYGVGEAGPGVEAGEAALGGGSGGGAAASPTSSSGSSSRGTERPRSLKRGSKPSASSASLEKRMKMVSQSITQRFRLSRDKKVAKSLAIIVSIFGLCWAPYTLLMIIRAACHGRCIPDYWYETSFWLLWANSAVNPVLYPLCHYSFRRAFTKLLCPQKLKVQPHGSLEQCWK

SMILES	Ki (Histamine H3 receptor [1]) [nM]	Ki (Histamine H3 receptor [2]) [nM]	Ki (Histamine H2 receptor) [µM]	Ki (Histamine H3 receptor [3]) [nM]	Ki (Histamine H1 receptor) [µM]
CN(C)CCCCNc1c2c(nc3ccccc13)CCCCC2	38.9	43.7	–	–	–
c1ccc2c(N3CCCNCC3)c3c(nc2c1)CCCCC3	> 1000	> 1000	–	–	–
CN(C)CCCNc1c2c(nc3c1CCCC3)CCCCC2	355	–	–	–	–
CN1CCCC1CCNc1c2c(nc3ccccc13)CCCCC2 (stereo not drawn)	18.2	6.61	1.73	6.6	4.08
OC[C@@H]1CCN(CCC#Cc2c3c(nc4ccccc24)CCCCC3)C1	617	251	–	–	–
CC(C)(C)OC(=O)N[C@H]1[C@@H]2CN(CCCNc3c4c(nc5ccccc35)CCCCC4)C[C@@H]21	51.3	46.8	–	–	–
CN(C)CCCNc1c2c(nc3ccccc13)CCSC2	58.9	53.7	–	–	–
C(#Cc1c2c(nc3ccccc13)CCCCC2)CCN1CCCC1	646	214	–	–	–
CN1CCN(CCC#Cc2c3c(nc4ccccc24)CCCCC3)CC1	> 1000	724	–	–	–
CN(C)CCCNc1c2c(nc3ccccc13)CCCCC2	21.9	9.77	10.1	9.7	7.7
CN(C)CCNc1c2c(nc3ccccc13)CCCCC2	148	47.9	–	–	–
c1ccc2c(NCCCN3CCCC3)c3c(nc2c1)CCCCC3	2.51	1.74	3.78	6.6	15.7
C(=C/c1c2c(nc3ccccc13)CCCCC2)/CCN1CCCCC1	275	87.1	–	–	–
C(#Cc1c2c(nc3ccccc13)CCCCC2)CCN1CCCCC1	407	79.4	3.21	80	1
C(#Cc1c2c(nc3ccccc13)CCCCC2)CCN1CCCCCC1	> 1000	437	–	–	–
CN(C)CCC#Cc1c2c(nc3ccccc13)CCCCC2	692	389	–	–	–
c1ccc2c(NCCCn3ccnc3)c3c(nc2c1)CCCCC3	> 1000	> 1000	–	–	–
CN1CCN(CCCNc2c3c(nc4ccccc24)CCCCC3)CC1	97.7	51.3	–	–	–
c1ccc2c(NCCCN3CCOCC3)c3c(nc2c1)CCCCC3	398	759	–	–	–
CC(=O)N(CCCN(C)C)c1c2c(nc3ccccc13)CCCCC2	> 1000	1000	–	–	–
CC(C)(C)OC(=O)N1CCCN(c2c3c(nc4ccccc24)CCCCC3)CC1	> 1000	> 1000	–	–	–
CC(C)(C)OC(=O)N1CCN(c2c3c(nc4ccccc24)CCCCC3)CC1	> 1000	> 1000	–	–	–
OC[C@H]1CCN(CCC#Cc2c3c(nc4ccccc24)CCCCC3)C1	> 1000	955	–	–	–
C(#Cc1c2c(nc3ccccc13)CCCCC2)CCN1CCOCC1	> 1000	> 1000	–	–	–
N[C@@H]1[C@H]2CN(CCCNc3c4c(nc5ccccc35)CCCCC4)C[C@@H]12	74.1	44.7	–	–	–
C(#Cc1c2c(nc3ccccc13)CCCCCC2)CCN1CCCCC1	646	158	–	–	–
